Test results reported in patent US10208071B2, “Use of agonists of formyl peptide receptor 2 for treating ocular inflammatory diseases” (Allergan, Inc., priority 2013, dated 2019).
pEC50: −log10 of the molar value. Read-outs that look alike come from different tables or passages of the source.

Molecular target: FPR2 (Homo sapiens (Human), UniProt P25090)
Test: FLIPR Ca+2 response, HEK-Gα16 cells stably expressing the human FPR2 receptor (Table 4)
Assay type: cell-based
Details: for FPR2 (efficacy): efficacy in parentheses
Description: FLIPR: HEK-Gα16 cells stably expressing the human FPR2 receptor was utilized. Cells were plated into 384-well poly-D-lysine coated plates at a density of 18,000 cells per well one day prior to use. The growth media was DMEM medium supplemented with 10% fetal bovine serum (FBS), 1% antibiotic-antimycotic, 50 μg/ml hygromycin, and 400 μg/ml geneticin. On the day of the experiment, the cells were washed twice with Hank's Balanced Salt Solution supplemented with 20 mM HEPES (HBSS/hepes buffer). The cells were then dye loaded with 2 μM Fluo-4 diluted in the HBSS/Hepes buffer and incubated at 37° C. for 40 minutes. Extracellular dye was removed by washing the cell plates four times prior to placing the plates in the FLIPR (Fluorometric Imaging Plate Reader, Molecular Devices). Ligands were diluted in HBSS/Hepes buffer and prepared in 384-well microplates. Data for Ca^+2 responses were obtained in relative fluorescence units.

FPR2, sequence (P25090 whole entry): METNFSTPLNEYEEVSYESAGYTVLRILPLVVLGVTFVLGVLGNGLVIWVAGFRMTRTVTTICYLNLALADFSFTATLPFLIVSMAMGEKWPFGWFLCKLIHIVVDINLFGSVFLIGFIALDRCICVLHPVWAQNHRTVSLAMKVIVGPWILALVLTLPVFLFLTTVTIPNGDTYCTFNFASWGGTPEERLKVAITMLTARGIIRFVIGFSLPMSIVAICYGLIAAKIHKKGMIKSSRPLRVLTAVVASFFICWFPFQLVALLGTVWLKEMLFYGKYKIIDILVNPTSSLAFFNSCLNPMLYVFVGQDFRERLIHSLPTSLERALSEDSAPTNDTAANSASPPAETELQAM

Structure (SMILES) | pEC50 | FPR2 (efficacy) | pEC50 (unit inferred)
CCC1(CCc2ccccc2)NC(=O)N(NC(=O)Nc2ccc(Br)cc2)C1=O (centres unmarked) [Compound 1, 1-(4-bromophenyl)-3-[4-ethyl-2,5-dioxo-4-(2-phenylethyl)imidazolidin-1-yl]urea] |  | (0.96) | 8.52
CCC[C@H](NC(=O)Nc1ccc(Br)cc1)C(=O)NCC(=O)O [Compound 2, {[(2S)-2-{[(4-bromophenyl)carbamoyl]amino}pentanoyl]amino}acetic acid] |  | (0.91) | 8.70
CCC1(C(C)C)NC(=O)N(NC(=O)Nc2ccc(Br)cc2)C1=O (centres unmarked) [Compound 4, 1-(4-bromophenyl)-3-[4-ethyl-2,5-dioxo-4-(propan-2-yl)imidazolidin-1-yl]urea] |  | (0.90) | 
CC[C@H](C)[C@H](NC(=O)Nc1ccc(Br)cc1F)C(=O)O [Compound 5, (2S,3S)-2-{[(4-bromo-2-fluorophenyl)carbamoyl]amino}-3-methylpentanoic acid] |  | (0.96) | 7.51
CC(C)C[C@H](NC(=O)Nc1ccc(Br)cc1)C(=O)NC(C)(C)C(=O)O [Compound 6, 2-{[(2S)-2-{[(4-bromophenyl)carbamoyl]amino}-4-methylpentanoyl]amino}-2-methylpropanoic acid] |  | (0.91) | 8.78
CC(C)C[C@H](NC(=O)Nc1ccc(Br)cc1F)C(=O)NCC(=O)O [Compound 7, {[(2S)-2-{[(4-bromo-2-fluorophenyl)carbamoyl]amino}-4-methylpentanoyl]amino}acetic acid] |  | (1.0) | 8.45
CC(C)C[C@H](NC(=O)Nc1ccc(Br)cc1)C(=O)NCC(=O)O [Compound 8, {[(2S)-2-{[(4-bromophenyl)carbamoyl]amino}-4-methylpentanoyl]amino}acetic acid] |  | (0.78) | 
CC(C)C[C@H](NC(=O)Nc1ccc(Br)cc1)C(=O)O [Compound 9, (2S)-2-{[(4-bromophenyl)carbamoyl]amino}-4-methylpentanoic acid] |  | (0.77) | 8.23
O=C(Nc1ccc(Br)cc1)NC(Cc1ccccc1)C(=O)NC1CCCCNC1=O (centres unmarked) [Compound 10, 2-{[(4-bromophenyl)carbamoyl]amino}-N-(2-oxoazepan-3-yl)-3-phenylpropanamide] | 7.96 | nM (0.89) | 
O=C(O)C1C(C(=O)Nc2ccc(I)cc2)C2C=CC1C21CC1 (centres unmarked) [Compound 11, 3-[(4-iodophenyl)carbamoyl] spiro[bicyclo[2.2.1]heptane-7,1′-cyclopropane]-5-ene-2-carboxylic acid] | 8.80 | nM (1.00) | 
O=C(O)C1C(C(=O)Nc2ccc(Br)cc2)C2C=CC1C21CC1 (centres unmarked) [Compound 12, 3-[(4-bromophenyl)carbamoyl] spiro[bicyclo[2.2.1]heptane-7,1′-cyclopropane]-5-ene-2-carboxylic acid] | 8.40 | nM (0.97) | 
CC(=O)c1ccc(NC(=O)Nc2ccc3c(c2)C(=O)N(CCc2c[nH]cn2)C(c2ccc(C#N)cc2)C3)cc1 (centres unmarked) [Compound 13, 1-(4-acetylphenyl)-3-{3-(4-cyanophenyl)-2-[2-(1H-imidazol-4-yl)ethyl]-1-oxo-1,2,3,4-tetrahydroisoquinolin-7-yl}urea] |  | nM (0.80) | 

Other lines, results leading:

pEC50 | FPR2 (efficacy) | pEC50 (unit inferred) | Structure (SMILES)
8.40 | nM (0.90) |  | O=C(O)[C@@H]1C2CCC([C@@H]1C(=O)Nc1ccc(Br)cc1)C21CC1 (relative stereo) [Compound 14, rel-(2R,3S)-3-[(4-bromophenyl)carbamoyl] spiro[bicyclo[2.2.1]heptane-7,1′-cyclopropane]-2-carboxylic acid]
 | nM (0.93) |  | CC1(CCc2ccccc2)NC(=O)N(NC(=O)Nc2ccc(Br)cc2)C1=O (single isomer, unassigned; (+)) [Compound 57]
 | nM (0.96) |  | CCC1(C(C)C)NC(=O)N(NC(=O)Nc2ccc(Br)cc2)C1=O (single isomer, unassigned; (+)) [Compound 66, (+)1-(4-bromophenyl)-3-[4-ethyl-2,5-dioxo-4-(propan-2-yl)imidazolidin-1-yl]urea]
 | nM (0.91) |  | NC(=O)C1C(C(=O)Nc2ccc(Br)cc2)C2CCC1C21CC1 (single isomer, unassigned; (-)) [Compound 45, (−) N-(4-bromophenyl)spiro[bicyclo[2.2.1]heptane-7,1′-cyclopropane]-2,3-dicarboxamide]
 | nM (1.0) |  | CCC1(C(C)C)NC(=O)N(NC(=O)Nc2ccc(Br)cc2)C1=O (single isomer, unassigned; (-)) [Compound 67, (−)1-(4-bromophenyl)-3-[4-ethyl-2,5-dioxo-4-(propan-2-yl)imidazolidin-1-yl]urea]
 | μM (0.59) |  | CCC(C)[C@@H](NC(=O)Nc1ccc(Br)cc1)C(=O)O (stereo in doubt) [Compound 122, (2R,3R)-2-{[(4-bromophenyl)carbamoyl]amino}-3-methylpentanoic acid]
9.22 | nM (0.87) |  | O=C(O)C1C(C(=O)Nc2ccc(I)cc2)C2CCC1C21CC1 (centres unmarked) [Compound 15, 3-[(4-iodophenyl)carbamoyl] spiro[bicyclo[2.2.1]heptane-7,1′-cyclopropane]-2-carboxylic acid]
 | nM (0.70) |  | CSc1ccc(NC(=O)Nc2ccc3c(c2)C(=O)N(CCCN)C(c2ccc(C#N)cc2)C3)cc1 (centres unmarked) [Compound 16, 1-[2-(3-aminopropyl)-3-(4-cyanophenyl)-1-oxo-1,2,3,4-tetrahydroisoquinolin-7-yl]-3-[4-(methylsulfanyl)phenyl]urea]
8.26 | nM (0.92) |  | CSc1ccc(NC(=O)Nc2ccc3c(c2)C(=O)N(CCc2c[nH]cn2)C(c2ccc(C#N)cc2)C3)cc1 (centres unmarked) [Compound 17, 1-{3-(4-cyanophenyl)-2-[2-(1H-imidazol-4-yl)ethyl]-1-oxo-1,2,3,4-tetrahydroisoquinolin-7-yl}-3-[4-(methylsulfanyl)phenyl]urea]
 | nM (0.86) |  | CS(=O)(=O)c1ccc(NC(=O)Nc2ccc3c(c2)C(=O)N(CCCN)C(c2ccc(C#N)cc2)C3)cc1 (centres unmarked) [Compound 18, 1-[2-(3-aminopropyl)-3-(4-cyanophenyl)-1-oxo-1,2,3,4-tetrahydroisoquinolin-7-yl]-3-[4-(methylsulfonyl)phenyl]urea]
 | nM (1.00) |  | CS(=O)(=O)c1ccc(NC(=O)Nc2ccc3c(c2)C(=O)N(CCc2c[nH]cn2)C(c2ccc(C#N)cc2)C3)cc1 (centres unmarked) [Compound 19, 1-{3-(4-cyanophenyl)-2-[2-(1H-imidazol-4-yl)ethyl]-1-oxo-1,2,3,4-tetrahydroisoquinolin-7-yl}-3-[4-(methylsulfonyl)phenyl]urea]
 | nM (0.94) |  | CC(C)=C1C2C=CC1C(C(=O)Nc1ccc(I)cc1)C2C(=O)O (centres unmarked) [Compound 20, 3-[(4-iodophenyl)carbamoyl]-7-(propan-2-ylidene)bicyclo[2.2.1]hept-5-ene-2-carboxylic acid]
 | nM (0.85) |  | CC1(C)C2CCC1C(C(=O)Nc1ccc(Br)cc1)C2C(=O)O (centres unmarked) [Compound 21, 3-[(4-bromophenyl)carbamoyl]-7,7-dimethylbicyclo[2.2.1]heptane-2-carboxylic acid]
 | nM (0.97) |  | CC1(C)C2CCC1C(C(=O)Nc1ccc(I)cc1)C2C(=O)O (centres unmarked) [Compound 22, 3-[(4-iodophenyl)carbamoyl]-7,7-dimethylbicyclo[2.2.1]heptane-2-carboxylic acid]
